From PubChem BioAssay AID248 (DTP/NCI, 2004)
“And” between values parts separate entries of the source, which are not always exact repeats. Equal values may be shown once. Inconclusive results and toxic doses are left out. Cut-off read from the data, not from the text of the source: active = T/C of 150% or more; inactive = T/C below 125%.

System: L1210 leukemia ip in BDF1 mice, survival T/C
Experiment: NCI In Vivo Anticancer Drug Screen. Data for tumor model L1210 Leukemia (intraperitoneal) in B6D2F1 (BDF1) mice
Conditions: higher = longer survival
Method in brief: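 Each compound was tested against a transplantable tumor grown in mice. The endpoint was survival, with treated animals benchmarked against vehicle controls as a simple ratio.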

[1] = endpoint: mean survival time, dose: 50.0 mg/kg/injection, schedule: Q01DX009 (ip), vehicle: Klucel (hydroxypropylcellulose) (HPC)
[2] = endpoint: mean survival time, dose: 100.0 mg/kg/injection, schedule: Q04DX003 (ip), vehicle: saline with Tween-80
[3] = endpoint: mean survival time, dose: 200.0 mg/kg/injection, schedule: Q04DX003 (ip), vehicle: saline with Tween-80
[4] = endpoint: mean survival time, dose: 100.0 mg/kg/injection, schedule: Q01DX009 (ip), vehicle: Klucel (hydroxypropylcellulose) (HPC)
[5] = endpoint: mean survival time, dose: 400.0 mg/kg/injection, schedule: Q01DX009 (ip), vehicle: Klucel (hydroxypropylcellulose) (HPC)
[6] = endpoint: mean survival time, dose: 100.0 mg/kg/injection, schedule: Q01DX009 (ip), vehicle: saline with Tween-80
[7] = endpoint: mean survival time, dose: 200.0 mg/kg/injection, schedule: Q01DX009 (ip), vehicle: saline with Tween-80
[8] = endpoint: mean survival time, dose: 100.0 mg/kg/injection, schedule: Q01DX001 (ip), vehicle: saline
[9] = endpoint: mean survival time, dose: 200.0 mg/kg/injection, schedule: Q01DX001 (ip), vehicle: saline
[10] = endpoint: mean survival time, dose: 200.0 mg/kg/injection, schedule: Q01DX009 (ip), vehicle: Klucel (hydroxypropylcellulose) (HPC)
[11] = endpoint: mean survival time, dose: 100.0 mg/kg/injection, schedule: Q04DX003 (ip), vehicle: saline
[12] = endpoint: mean survival time, dose: 100.0 mg/kg/injection, schedule: Q04DX003 (ip), vehicle: Klucel (hydroxypropylcellulose) (HPC)
[13] = endpoint: mean survival time, dose: 200.0 mg/kg/injection, schedule: Q04DX003 (ip), vehicle: Klucel (hydroxypropylcellulose) (HPC)
[14] = endpoint: mean survival time, dose: 400.0 mg/kg/injection, schedule: Q04DX003 (ip), vehicle: Klucel (hydroxypropylcellulose) (HPC)

Measured: T/C

CCCCC(CC)CNCC(O)CNCC(CC)CCCC (centres undefined)
inactive: [1] 88 % of control | endpoint: mean survival time, dose: 100.0 mg/kg/injection, schedule: Q04DX002 (ip), vehicle: Klucel (hydroxypropylcellulose) (HPC) 108 % of control | endpoint: mean survival time, dose: 200.0 mg/kg/injection, schedule: Q04DX002 (ip), vehicle: Klucel (hydroxypropylcellulose) (HPC) 101 % of control

C1=CC2C3C=CC(C3)C2C1 (centres undefined)
inactive: endpoint: mean survival time, dose: 50.0 mg/kg/injection, schedule: Q04DX003 (ip), vehicle: saline with Tween-80 95 % of control | [2] 95 % of control | [3] 93 % of control

CSC1C(OC(=O)c2ccccc2)C(COC(=O)c2ccccc2)OC1n1cnc2ncnc(NC(=O)c3ccccc3)c21 (centres undefined)
inactive: endpoint: mean survival time, dose: 100.0 mg/kg/injection, schedule: Q01DX005 (ip), vehicle: saline 100 % of control | endpoint: mean survival time, dose: 200.0 mg/kg/injection, schedule: Q01DX005 (ip), vehicle: saline 92 % of control

C[AsH](C)CC[AsH](C)C.C[AsH](C)CC[AsH](C)C.C[AsH](C)CC[AsH](C)C.[Ni]
inactive: endpoint: mean survival time, dose: 25.0 mg/kg/injection, schedule: Q04DX002 (ip), vehicle: saline 103 % of control | endpoint: mean survival time, dose: 50.0 mg/kg/injection, schedule: Q04DX002 (ip), vehicle: saline 109 % of control

Cc1ccc([N+](=O)[O-])cc1NC(=O)Nc1ccccc1O
inactive: [4] 92 % of control | [5] 87 % of control

COCC(O)C(OC)C(OC)C(C=O)NC(=O)NCCCl (centres undefined)
inactive: endpoint: mean survival time, dose: 100.0 mg/kg/injection, schedule: Q01DX001 (ip), vehicle: Klucel (hydroxypropylcellulose) (HPC) 102 % of control | endpoint: mean survival time, dose: 200.0 mg/kg/injection, schedule: Q01DX001 (ip), vehicle: Klucel (hydroxypropylcellulose) (HPC) 103 % of control | endpoint: mean survival time, dose: 400.0 mg/kg/injection, schedule: Q01DX001 (ip), vehicle: Klucel (hydroxypropylcellulose) (HPC) 100 % of control

O=C(Nc1cccc(S(=O)(=O)F)c1)Oc1ccc([N+](=O)[O-])cc1
inactive: endpoint: mean survival time, dose: 100.0 mg/kg/injection, schedule: Q01DX001 (ip), vehicle: saline with Tween-80 100 % of control | [6] 95 % of control and 100 % of control | endpoint: mean survival time, dose: 100.0 mg/kg/injection, schedule: Q04DX002 (ip), vehicle: saline with Tween-80 91 % of control | [2] 95 % of control | endpoint: mean survival time, dose: 200.0 mg/kg/injection, schedule: Q01DX001 (ip), vehicle: saline with Tween-80 100 % of control | [7] 98 % of control and 102 % of control | endpoint: mean survival time, dose: 200.0 mg/kg/injection, schedule: Q04DX002 (ip), vehicle: saline with Tween-80 91 % of control | [3] 100 % of control | endpoint: mean survival time, dose: 400.0 mg/kg/injection, schedule: Q01DX001 (ip), vehicle: saline with Tween-80 98 % of control | endpoint: mean survival time, dose: 400.0 mg/kg/injection, schedule: Q01DX009 (ip), vehicle: saline with Tween-80 88 % of control | endpoint: mean survival time, dose: 400.0 mg/kg/injection, schedule: Q04DX002 (ip), vehicle: saline with Tween-80 90 % of control

CC1CCC2C(CCC3CCCCC32)C1 (centres undefined)
inactive: [8] 107 % of control | [9] 107 % of control

CC(CCC(=O)O)(c1ccc(O)cc1)c1ccc(O)cc1
inactive: endpoint: mean survival time, dose: 100.0 mg/kg/injection, schedule: Q04DX003 (ip), vehicle: other 99 % of control | endpoint: mean survival time, dose: 200.0 mg/kg/injection, schedule: Q04DX003 (ip), vehicle: other 105 % of control | endpoint: mean survival time, dose: 400.0 mg/kg/injection, schedule: Q04DX003 (ip), vehicle: other 97 % of control

Cc1ccc(S(=O)(=O)Nc2c(N)nc(N)nc2-c2ccccc2)cc1
inactive: endpoint: mean survival time, dose: 80.0 mg/kg/injection, schedule: Q01DX001 (ip), vehicle: Klucel (hydroxypropylcellulose) (HPC) 96 % of control | endpoint: mean survival time, dose: 160.0 mg/kg/injection, schedule: Q01DX001 (ip), vehicle: Klucel (hydroxypropylcellulose) (HPC) 94 % of control | endpoint: mean survival time, dose: 320.0 mg/kg/injection, schedule: Q01DX001 (ip), vehicle: Klucel (hydroxypropylcellulose) (HPC) 103 % of control

CCOC(=O)c1[nH]c(-c2ccccc2)nc1/N=N/N(C)C
inactive: endpoint: median survival time, dose: 25.0 mg/kg/injection, schedule: Q01DX009 (ip), vehicle: Klucel (hydroxypropylcellulose) (HPC) 122 % of control | endpoint: median survival time, dose: 200.0 mg/kg/injection, schedule: Q01DX009 (ip), vehicle: Klucel (hydroxypropylcellulose) (HPC) 111 % of control

CC(C)(C)OP(O)(=S)OC(C)(C)C
inactive: endpoint: mean survival time, dose: 100.0 mg/kg/injection, schedule: Q04DX002 (ip), vehicle: saline 94 % of control | endpoint: mean survival time, dose: 200.0 mg/kg/injection, schedule: Q04DX002 (ip), vehicle: saline 113 % of control | endpoint: mean survival time, dose: 400.0 mg/kg/injection, schedule: Q04DX002 (ip), vehicle: saline 110 % of control

N#CC(OS(=O)(=O)c1ccccc1)c1ccccc1 (centres undefined)
inactive: endpoint: mean survival time, dose: 50.0 mg/kg/injection, schedule: Q01DX001 (ip), vehicle: other 89 % of control | endpoint: mean survival time, dose: 100.0 mg/kg/injection, schedule: Q01DX001 (ip), vehicle: other 97 % of control | endpoint: mean survival time, dose: 200.0 mg/kg/injection, schedule: Q01DX001 (ip), vehicle: other 105 % of control

O=C(N/N=C/c1cccnc1)c1ccc(O)cc1
inactive: [4] 91 % of control | [10] 96 % of control | [5] 94 % of control

NNc1c2ccccc2nc2ccccc12
inactive: endpoint: mean survival time, dose: 0.5 mg/kg/injection, schedule: Q04DX003 (ip), vehicle: Klucel (hydroxypropylcellulose) (HPC) 103 % of control | endpoint: mean survival time, dose: 1.0 mg/kg/injection, schedule: Q04DX003 (ip), vehicle: Klucel (hydroxypropylcellulose) (HPC) 100 % of control | endpoint: mean survival time, dose: 2.0 mg/kg/injection, schedule: Q04DX003 (ip), vehicle: Klucel (hydroxypropylcellulose) (HPC) 95 % of control

CC(=O)SCCCCl
inactive: [11] 105 % of control | endpoint: mean survival time, dose: 200.0 mg/kg/injection, schedule: Q04DX003 (ip), vehicle: saline 101 % of control | endpoint: mean survival time, dose: 400.0 mg/kg/injection, schedule: Q04DX003 (ip), vehicle: saline 102 % of control

CN1CCC(C=C2c3ccccc3Sc3ccccc32)C1 (centres undefined)
inactive: endpoint: mean survival time, dose: 8.0 mg/kg/injection, schedule: Q01DX015 (ip), vehicle: carboxymethylcellulose (CMC) 110 % of control | endpoint: mean survival time, dose: 16.0 mg/kg/injection, schedule: Q01DX015 (ip), vehicle: carboxymethylcellulose (CMC) 102 % of control | endpoint: mean survival time, dose: 32.0 mg/kg/injection, schedule: Q01DX015 (ip), vehicle: carboxymethylcellulose (CMC) 96 % of control | endpoint: mean survival time, dose: 64.0 mg/kg/injection, schedule: Q01DX015 (ip), vehicle: carboxymethylcellulose (CMC) 98 % of control

COC1OC2COC(c3ccccc3)OC2C(O)C1NC(=O)c1ccccc1 (centres undefined)
inactive: [12] 110 % of control | [13] 94 % of control | [14] 111 % of control

CCCCNP(=S)(NCCCC)c1ccccc1
inactive: [8] 98 % of control | [9] 93 % of control | endpoint: mean survival time, dose: 400.0 mg/kg/injection, schedule: Q01DX001 (ip), vehicle: saline 95 % of control

NC(=O)c1c(CC(=O)O)nn(-c2ccccc2)c1N
inactive: [1] 94 % of control | [4] 98 % of control | [10] 102 % of control

Cc1c(Cl)c(N(C)S(=O)(=O)c2ccccc2)c(C)c(Cl)c1N(C)S(=O)(=O)c1ccccc1
inactive: [12] 103 % of control | [13] 96 % of control | [14] 95 % of control

CCC(CO)C(C)C (centres undefined)
inactive: endpoint: mean survival time, dose: 50.0 mg/kg/injection, schedule: Q01DX009 (ip), vehicle: saline with Tween-80 107 % of control | [6] 102 % of control | [7] 93 % of control

NC1(CO)COC(c2ccccc2)OC1 (centres undefined)
inactive: endpoint: mean survival time, dose: 12.5 mg/kg/injection, schedule: Q01DX009 (ip), vehicle: saline 102 % of control | endpoint: mean survival time, dose: 12.5 mg/kg/injection, schedule: Q04DX003 (ip), vehicle: saline 102 % of control | endpoint: mean survival time, dose: 25.0 mg/kg/injection, schedule: Q01DX009 (ip), vehicle: saline 94 % of control | endpoint: mean survival time, dose: 25.0 mg/kg/injection, schedule: Q04DX003 (ip), vehicle: saline 96 % of control | endpoint: mean survival time, dose: 50.0 mg/kg/injection, schedule: Q01DX009 (ip), vehicle: saline 96 % of control and 104 % of control | endpoint: mean survival time, dose: 50.0 mg/kg/injection, schedule: Q04DX003 (ip), vehicle: saline 105 % of control | endpoint: mean survival time, dose: 100.0 mg/kg/injection, schedule: Q01DX009 (ip), vehicle: saline sonified 96 % of control | endpoint: mean survival time, dose: 100.0 mg/kg/injection, schedule: Q01DX009 (ip), vehicle: saline 112 % of control | [11] 107 % of control and 110 % of control
